From US11661404B2, “Prodrug compounds activated by AKR1C3 and their use for treating hyperproliferative disorders” (priority 2018, dated 2023)

Key:
[1] = system: mixed HCT116 colon cancer MCLs containing 5% AKR1C3 over-expressing cells; test: High cell density multicellular layer (MCL) assay, bystander cell killing; type: cell-based, human
Experimental: The MCL model utilised for this evaluation consisted of AKR1C3 overexpressing (activator) cells or non-AKR1C3 expressing (target) cells or a mixture of these two cell types grown in a ratio of 5:95. The mixture of the two distinct cell populations enabled the determination of the extent of the transfer of cytotoxic metabolites from the activator cell to the target cell population.
Plating efficiencies were calculated as the fraction of colonies formed relative to the number of cells seeded. The compound concentrations for 10% survival (C10) of target cells grown without activators (T), targets in co-culture (Tc) and activators in co-culture (Ac) was determined by interpolation. Bystander effect efficiency (BEE) was calculated as (Log C10T−Log C10Tc)/(Log C10T−Log C10Ac), where BEE is the measure of cytotoxic metabolite transfer. In contrast to PR-104A, preferred compounds of the invention have a minimal BEE, reducing off-target side effects from ablation of neighbouring non-AKR1C3 expressing cells.
Millicell-CM membrane inserts were coated in calf-skin collagen type III. The collagen solution was prepared dissolving in sterile 0.01 N HCl to a concentration of 3 mg/mL. The collagen solution was diluted (1:5) in sterile 60% ethanol and 100 μL of this solution was used to coat the membrane inserts and left overnight in a sterile environment to dry.
Prior to adding cells, the inserts were sterilised in 70% ethanol and left to aerate in a sterile environment in order for the ethanol to evaporate. A sterile polyethylene foam ring was placed around each insert to enable subsequent floatation. Single cell suspensions of 1×10^6 cells in a volume of 500 μL was added to each insert. When mixtures of cells were required, 1×10^6 cells of the mixed cell suspension (in 500 μL) were added to each insert. The type of mixed MCLs used in experiments consisted of 95% HCT116^NeoR and 5% HCT116^AKR1C3 cells. The HCT116^NeoR ells were used in this mixture as an AKR1C3 negative cell line which can subsequently be grown in selective medium containing Geneticin (G418), and which enabled discrimination with the AKR1C3 positive cell line (which can be grown in selective medium containing puromycin). The inserts containing cells were placed in a sterile screw-top plastic jar containing 300 mL of α-MEM+10% v/v FBS+1% PSG, with a maximum of 6 inserts in a jar. The inserts were left floating in the medium for 4 hours in a humidified incubator (37° C., 5% CO2) to enable cells to adhere to the collagen coat and then submerged in the medium with a sterile stainless steel grid. Cells were left to grow and form MCLs on the inserts for a period of 3 days by placing the jars in a 37° C. water bath with continuous magnetic stirring of the medium.
Three days after growth of cells as MCLs in inserts, each insert was inspected with an inverted phase contrast microscope to ensure uniform growth of cells. Suitable MCLs were transferred to 25 mL glass vessels containing 10 mL of medium (α-MEM+10% v/v FBS+1% PSG) with the required drug concentrations. Each insert in the glass vessel was held by a stainless steel loop attached to the lid. The vessels were placed in a 37° C. water bath. Ports on the lid of each bottle enabled gassing with the required gas phase. The glass vessels containing the MCL inserts and drug were left in the 37° C. water bath for 5 hours with continuous gassing and magnetic stirring of medium. The gas phase used was 5% CO2:95% O2, with the high oxygen concentration used to minimise bioreductive drug activation by endogenous one-electron reductases.
After the 5 hour incubation, each insert was trypsinised in 0.07% trypsin in PBS for 10 minutes at 37° C. to dissociate the MCL into a single cell suspension. The dissociated cells were incubated for a further 10 minutes in α-MEM containing 10% FBS and 100 μg/ml DNAase I. Cells were then counted on a Z2 Coulter® Particle Count and Size Analyzer and resuspended in fresh medium. […]

[2] = Solubility by HPLC in water and lactate buffer; type: physicochemical; conditions: lactate buffer (pH 4), room temperature
Experimental: (§1) The solubility and stability of compound 641 was studied by HPLC in lactate buffer (pH 4) and water as the free base and the mesylate salt (641.Ms) at 0° C. and room temperature (RT). […] However, this was improved considerably by formulation as the mesylate salt, producing a solubility of greater than 100 mmol/L in lactate buffer and greater than 70 mmol/L in water. […] This stability was improved considerably by reducing the temperature of the solution to 0° C.

[3] = Stability in solution by HPLC in water and lactate buffer; type: physicochemical; conditions: room temperature
Experimental: as §1

[4] = 95% HCT116^NeoR : 5% HCT116^AKR1C3, 5 hours

For `CN1CCN(S(=O)(=O)c2cc([N+](=O)[O-])ccc2N(CCOS(C)(=O)=O)CCOS(C)(=O)=O)CC1` [Compound 641, ((2-((4-methylpiperazin-1-yl)sulfonyl)-4-nitrophenyl)azanediyl)bis(ethane-2,1-diyl) dimethanesulfonate], the “shift in the C10 from T to Tc” value ([1]; 5% AKR1C3-positive cells) was 9 fold, the “activators in co-culture C10 (Ac)” value [1, 4] was 0.0054 µM and the “targets in co-culture C10 (Tc)” value [1, 4] was 1.27 µM. The “AKR1C3-positive HCT116 cells clonogenically sterilised” value ([1]; concentrations 0.002 μM to 0.2 μM, FIG. 8) was “at least 99.9%”, the “sensitivity of AKR1C3 expressing cells vs AKR1C3-negative cells to clonogenic cell kill (T/Ac)” value ([1]; high cell density) was 2055 fold and the “target cell C10 (T), concentration for 10% survival” value ([1]; target cells grown without activators, 5 hours exposure, clonogenic survival) was 11.1 µM. For the same compound, the “Solubility, Lactate Buffer, RT” value [2] was 3.4 mM, the “Stability (% Parent after 24 hours), Lactate Buffer, RT” value ([3]; lactate buffer (pH 4)) was 54.4% and the half-life ([3]; pH 4, lactate buffer) was ~24 h.
